Results: patent US8946382B2, “Apelin peptides and methods of use” (The United States of America, as represented by the …, priority 2009, dated 2015)
Entries after “also recorded” stand apart in the source; their conditions may differ. Where no end group is shown, it is not given here. The star is where a group is joined. Biotin = O=C1N[C@H]2[C@H](CS[C@H]2CCCCC(=O)*)N1

What was measured:
MDA-MB-345 cells = experiment: Binding of biotinylated salcut-NH2 to cells (fluorescent labeling); format: cell-based, human
[1] = tested on: human breast cancer cell line MDA-MB-435; experiment: Proliferation assay, MDA-MB-435; format: cell-based; conditions: for proliferative response over dose range: dose range of 1 nM to 1 uM; for relative potency in proliferation assays: salcut-NH2 of two manufacturers vs biotinylated salcut, FIG. 14A-14C
From the text: An N-terminal biotinylated salcut-NH2 ligand was synthesized (a single biotin moiety was attached to the amino-terminal leucine residue). Validity of the chemical composition of the biotinylated salcut-NH2 was accomplished using amino acid sequence analysis and MADLI-TOF mass spectrometry characterization.

[2] = tested on: human blood vessel endothelial (HMEC-1) cells; experiment: Proliferation assay (ATPLITE), HMEC-1; format: cell-based; conditions: FIGS. 3E, 3F, 6
From the text: (§1) Proliferation response profiles of apelin, salcut-NH2, salcut-Gly, and/or salcut-OH on a variety of endothelial and tumor cell lines or primary endothelial cells were obtained using the following method. Human blood vessel endothelial cells (HMEC-1), human primary microvascular dermal EC (dB1), human lymphatic endothelial cells (LEC), human mast cells (HMC-1), human breast cancer cells (MCF-7; T47D), human gastric cancer cells (HTB 103), human lung cancer cells (A549), monkey endothelial cells (CRL 1780), and porcine aortic endothelial cells (PAE) were seeded at 25,000 cells per well at 50 μl volume in appropriate media containing 0.5% serum in a 96 well plate. After overnight incubation the peptide was added in serum free media and cells were incubated for 3-5 days. To measure growth proliferation, the adenosine triphosphate ATPLITE™ one-step assay (PerkinElmer), which is based on firefly luciferase and has high sensitivity for quantification of viable cells, was used. Data were expressed as mean plus minus standard deviation. Statistical analyses were performed using Student's t-test, p values less than 0.05 were considered statistically significant.
Endothelial cell proliferation assays were performed as described above with both spontaneously immortalized porcine aortic endothelial (PAE) cells and SV40 immortalized human dermal microvascular endothelial (HMEC-1).

[3] = tested on: porcine aortic endothelial (PAE) cells; experiment: In vitro tube formation assay; format: cell-based
Description: Porcine aortic endothelial (PAE) cells were stably transfected with Green Fluorescent Protein (GFP) and seeded at a concentration of 18,000 cells per well of a 96-well culture plate. The wells were coated with […] basement membrane matrix (Invitrogen, CA). Cells were resuspended in medium at a concentration of 2.25×10^5 to 2.5×10^5 cells/ml. An […] (18,000-20,000) cells were added per well. Positive control cells were cultured with medium supplemented with 1.0% fetal bovine serum (FBS). Negative control cells were cultured with serum-free medium. […] After three or more hours of incubation, cells were assessed for tube formation and were photographed. Assays were performed in triplicate.

[4] = tested on: A549 human bronchioloalveolar cancer cells; experiment: Nude mouse xenograft study; format: in vivo, nude mice; conditions: 10 μM
Description: (§2) Six week old female nude mice were used in this study; ten mice were used per test group. A549 human bronchioloalveolar cancer cells were cultured at the SAIC/Frederick facility. 1×10^7 A549 cells were injected subcutaneously in the hindquarter of each nude mouse. The following treatment regime was started seven days following tumor injection: Group 1—PBS control; Group 2—salcut-NH2 peptide (10 μM). Appropriate Groups were treated with 25 μl injections at four corners around the tumor, three times per week for five weeks. Mice were inspected, weighed, and tumors measured (H×W×L) three times per week with calipers. Following completion of the experiment, mice were euthanized, tumors excised, and cut into four pieces. Two segments were frozen and stored at −80° C. and two segments were paraffin embedded for pathology.
as §2, with “In another experiment, six” for “Six”, “(10 pM); Group 3—salcut-NH2 peptide (10 nM); Group 4—salcut-NH2 peptide (10” for “(10”, “100” for “25”, “intraperitoneally,” for “at four corners around the tumor,”, “four” for “five”

[5] = tested on: human lung cancer cell line A549; experiment: Proliferation assay (ATPLITE), A549; format: cell-based
From the text: as §1

[6] = tested on: human mast cell line HMC-1; experiment: Proliferation assay (ATPLITE), HMC-1; format: cell-based; conditions: FIG. 5
From the text: as §1

rat aortic ring = experiment: Rat aortic ring assay (vessel outcropping); format: cell-based
Description: On day 0, rats were euthanized and decapitated, and aortas were harvested and transferred to a culture dish containing EGM-2 with growth factors (20 ml media; Clonetics). Fibroadipose tissue and other non-aortic tissue were removed. Using dissecting microscope, the aorta was sectioned into 1 mm-long rings. Aortic rings were then rinsed 6-8× with EGM-2 with growth factors. Aortic rings were each placed in the center of a matrix (GELTREX™; Invitrogen Corp)-coated culture well. Aortic tissue was covered with 250 μl GELTREX™ and each well was incubated with 1 ml EGM-2 with growth factors supplemented for 24 hours at 37° C., 5% CO2.
On day 1, media with growth factors was removed, 250 μl of media (without growth factors) with either 0.1 nM, 1.0 nM, or 10 nM of salcut-NH2 was added to each well and incubated at 37° C., 5% CO2 for 5-7 days.

[7] = tested on: human breast cancer cell line MCF-7; experiment: Proliferation assay (ATPLITE), MCF-7; format: cell-based; conditions: 1 nM to 1 μM dose range; FIG. 4A
From the text: as §1

[8] = tested on: endothelial and tumor cell lines or primary endothelial cells; experiment: Proliferation response (ATPLITE one-step assay) on a variety of endothelial and tumor cell lines; format: cell-based; conditions: 3E
From the text: as §1

[9] = tested on: human gastric cancer cell line HTB-103; experiment: Proliferation assay (ATPLITE), HTB 103; format: cell-based; conditions: FIG. 5
From the text: as §1

APJ receptor = molecular target: T1, APJ receptor (Homo sapiens, UniProt P35414); conditions: cited from earlier work
T1 sequence (P35414 1-380): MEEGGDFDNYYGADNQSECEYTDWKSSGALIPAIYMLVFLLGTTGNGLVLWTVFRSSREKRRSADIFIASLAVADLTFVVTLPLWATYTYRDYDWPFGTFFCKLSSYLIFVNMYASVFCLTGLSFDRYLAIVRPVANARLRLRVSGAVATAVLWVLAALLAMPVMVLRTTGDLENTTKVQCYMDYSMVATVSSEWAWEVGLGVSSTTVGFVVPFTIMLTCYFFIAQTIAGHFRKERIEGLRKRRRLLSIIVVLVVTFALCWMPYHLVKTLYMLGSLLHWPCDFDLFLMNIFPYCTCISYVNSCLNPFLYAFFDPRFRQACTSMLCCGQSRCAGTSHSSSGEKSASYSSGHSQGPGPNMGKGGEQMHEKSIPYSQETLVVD

[10] = molecular target: T2, apelin G protein receptor (known as APJ) (Homo sapiens, UniProt P35414); conditions: Tatemoto et al. 1998; cited from earlier work
T2 sequence (P35414 1-380): T1 sequence (P35414 1-380)

biotinylated salcut: N-terminal biotinylated salcut-NH2 ligand; a single biotin moiety attached to the amino-terminal leucine residue (Biotin-LVQPRGSRNGPGPWQG-NH2; SMILES CC(C)C[C@H](NC(=O)CCCC[C@@H]1SC[C@@H]2NC(=O)N[C@@H]21)C(=O)N[C@H](C(=O)N[C@@H](CCC(N)=O)C(=O)N1CCC[C@H]1C(=O)N[C@@H](CCCNC(=N)N)C(=O)NCC(=O)N[C@@H](CO)C(=O)N[C@@H](CCCNC(=N)N)C(=O)N[C@@H](CC(N)=O)C(=O)NCC(=O)N1CCC[C@H]1C(=O)NCC(=O)N1CCC[C@H]1C(=O)N[C@@H](Cc1c[nH]c2ccccc12)C(=O)N[C@@H](CCC(N)=O)C(=O)NCC(N)=O)C(C)C)
binding to cells (fluorescent labeling) (MDA-MB-345 cells): high intensity fluorescent labeling | proliferative response over dose range [1]: large change in response | relative potency in proliferation assays [1]: equipotent in proliferation assays

salcut-Gly: glycine-extended form of human apelin-36 (42-57) (LVQPRGSRNGPGPWQGG; homo sapiens)
effect on HMEC-1 proliferation [2]: non-responsive over the dose range tested; also recorded: minor effect on proliferation; also recorded: do not have a statistically significant effect on cell growth | effect on HMEC-1 proliferation ([2]; listed as salcut Gly): no effect on HMEC-1 cell proliferation

salcut-OH: human apelin-36 (42-57), the free-acid derivative of salcut (LVQPRGSRNGPGPWQG-OH)
effect on HMEC-1 proliferation [2]: minor effect on proliferation; also recorded: do not have a statistically significant effect on cell growth | effect on HMEC-1 proliferation ([2]; listed as Salcut-OH): non-responsive over the dose range tested | effect on HMEC-1 proliferation ([2]; listed as salcut OH): no effect on HMEC-1 cell proliferation

(Ala13)-apelin-13 [reference compound]
effect of antagonist on endothelial cell tube formation ([3]; in the presence of 1 nM apelin-13, FIG. 8): inhibited endothelial cell tube formation

salcut-NH2: amide derivative of human apelin-36 (42-57), sixteen amino acid peptide from residues 42-57 of apelin preproprotein (LVQPRGSRNGPGPWQG-NH2)
tumor growth ([4]; 10 pM, 10 nM, 100 μl intraperitoneally, three times per week for four weeks, compared to PBS, FIG. 12): reduced tumor growth | tumor growth ([4]; 25 μl injections at four corners around the tumor, three times per week for five weeks, compared to PBS): dramatic reduction in tumor growth | tumor growth ([4]; 100 μl intraperitoneally, three times per week for four weeks): highly statistically significant (<0.005) suppression of tumor growth | effect on proliferation (stimulation) ([5]; 10 nM to 100 pM range, FIG. 3D): neither apelin-13 (65-77) nor salcut-NH2 affect proliferation; also recorded: does not stimulate proliferation | effect on proliferation at higher concentrations ([5]; higher concentrations, 1 nM to 1 μM dose range (FIG. 4B)): lack of a statistically significant proliferative response; also recorded: cell growth suppressive effect at higher concentrations; also recorded: did not respond in a statistically significant manner | inhibition of binding of biotinylated salcut-NH2 to cells (MDA-MB-345 cells; unlabeled peptide in the presence of biotinylated salcut-NH2): can be inhibited | proliferative dose response [6]: biphasic response curves; also recorded: only responded to lower concentrations of salcut-NH2 by stimulating proliferation | concentration at which a suppressive effect on tube formation was observed [3]: exceeding 10 nM | number of vessels forming from the aortic ring (rat aortic ring; 0.1 nM, 1.0 nM, 10 nM, 5-7 days, FIG. 9): number of vessels formed increase with increasing concentration; also recorded: increased number of vessels forming from the aortic ring | vessel formation within the aortic ring (rat aortic ring; 10 nM dose): Vessels begin to form with the ring; also recorded: vessels were beginning to form within the aortic ring | proliferative dose response [7]: biphasic response curve; also recorded: biphasic (rise and fall) response | concentration having a suppressive effect on cell proliferation ([8]; FIGS. 3A-3D, 3G, 3I-3O): ≥ 10 nM | cell proliferation (relative luminescent units [RLU]) ([8]; compared to cells cultured in the absence of these compounds (0 Rx), FIGS. 3A-3C, 3G-3O): increases | effect on HMEC-1 proliferation [2]: biphasic response curve; also recorded: potent stimulators of HMEC-1 proliferation; also recorded: biphasic (rise and fall) response | proliferative dose response [9]: biphasic response curves; also recorded: biphasic (rise and fall) response | proliferative response over dose range [1]: large change in response | relative potency in proliferation assays [1]: equipotent in proliferation assays

apelin-17
binding to the APJ receptor (APJ receptor): can bind the APJ receptor | potency of peptide-induced acidification rates [10]: moderately potent
